Experimental findings from US20260373138A1, “COMPOUNDS WITH ANTIFUNGAL PROPERTIES” (priority 2023, published 2026) are described below.

The test system of this assay is A. fumigatus CEA10 reference strain. Description: Fluconazole potentiator screen: MIC by CLSI microbroth dilution with and without fluconazole. The format is cell-based, Aspergillus fumigatus. Particulars: for MIC: Aspergillus fumigatus, read-out: MIC (ug/mL) (−) Fluc; for MIC / MIC (ug/mL) (+) Fluc: 18 h; for MIC (ug/mL) (+) Fluc: with 32 μg/ml fluconazole, normoxia, GMM, 37 °C; for potency / potentiation of fluconazole (in words): structure-activity statements, fluconazole potentiator screen. (Broth dilution looks for growth in wells or tubes with falling amounts of substance.)

A value given as a limit tells only on which side of the number the result lay.

Turning to `O=C(c1ccsc1)N1CCC(Cc2ccc(CNc3ccncc3)cc2)CC1` [MBX-8085], the MIC was greater than 19 µg/mL and the “MIC (ug/mL) (+) Fluc” value is greater than 19 µg/mL.
`O=S(=O)(c1cccc(F)c1)N1CCC(Cc2ccc(N3CCOCC3)cc2)CC1` [MBX-8222]: the MIC is greater than 21 µg/mL and the “MIC (ug/mL) (+) Fluc” value is greater than 21 µg/mL.
With `O=S(=O)(c1cccs1)N1CCC2(CC1)C[C@@H](CCOc1ccncc1)CCO2` [MBX-8251], the MIC came to 5.28 µg/mL and the “MIC (ug/mL) (+) Fluc” value turned out to be 1.32 µg/mL.
In the case of `O=C(c1ccsc1)N1CCC(Cc2cccc(COc3ccncc3)c2)CC1` [MBX-8029], the MIC was 27 µg/mL and the “MIC (ug/mL) (+) Fluc” value came out at 19.00 µg/mL.
As to `Cc1cc(OCc2ccc(CC3CCN(C(=O)c4ccsc4)CC3)cc2)ccn1` [MBX-8141], the MIC is greater than 20 µg/mL, the “potency / potentiation of fluconazole (in words)” value (shortened to “potency / potentiation”) was “complete loss of activity” and the “MIC (ug/mL) (+) Fluc” value was greater than 20 µg/mL.
As for `O=S(=O)(NC1CCN(Cc2ccc(CN3CCOCC3)cc2)CC1)c1ccc(F)cc1` [MBX-8284], the MIC was greater than 22 µg/mL and the “MIC (ug/mL) (+) Fluc” value is greater than 22 µg/mL.
Regarding `CN1CCN(c2ccc(CC3CCN(S(=O)(=O)c4ccc(F)cc4)CC3)cc2)CC1` [MBX-8701], the MIC was 0.67 µg/mL and the “MIC (ug/mL) (+) Fluc” value worked out at 0.19 µg/mL.
In the case of `O=C(c1cccc(Cl)c1)N1CCC(Cc2ccc(COc3ccncc3)cc2)CC1` [MBX-8092], the MIC is 21 µg/mL and the “MIC (ug/mL) (+) Fluc” value was greater than 21 µg/mL.
Take `O=S(=O)(NC1CC2(CC(Cc3ccc(CN4CCOCC4)cc3)C2)C1)c1ccc(F)cc1` (stereo not drawn) [MBX-8311]: the MIC came to 19 µg/mL and the “MIC (ug/mL) (+) Fluc” value came out at 22.00 µg/mL.
`O=S(=O)(c1cscn1)N1CCC2(CC1)CC(CCOc1ccncc1)CCO2` (stereo not drawn) [MBX-7960]: the MIC is 42 µg/mL and the “MIC (ug/mL) (+) Fluc” value is 10.60 µg/mL.
As to `O=C(c1ccsc1)N1CCC(Cc2ccc(CN3CCOCC3)cc2)C1` (stereo not drawn) [MBX-8429], the MIC was 18.5 µg/mL and the “MIC (ug/mL) (+) Fluc” value was found to be 18.53 µg/mL.
As to `CC1CC(Cc2ccc(CN3CCOCC3)cc2)CCN1S(=O)(=O)c1cccc(F)c1` (stereo not drawn) [MBX-8281], the MIC amounted to 7.03 µg/mL and the “MIC (ug/mL) (+) Fluc” value was determined as 1.40 µg/mL.
Take `O=S(=O)(c1ccc(F)cc1)N1CCC(Cc2ccc(Cc3ccncc3)cc2)CC1` [MBX-8428]: the MIC stood at 10.6 µg/mL and the “MIC (ug/mL) (+) Fluc” value stood at 6.37 µg/mL.
With `O=C(c1ccoc1)N1CCC(Cc2ccc(COc3ccncc3)cc2)CC1` [MBX-7732], the MIC came out at 5.32 µg/mL and the “MIC (ug/mL) (+) Fluc” value stood at 1.88 µg/mL. For the same molecule, for the setting “relative to MBX-7591”, the “loss in potency compared to MBX-7591” value is given as 4 fold.
Take `O=C(c1ccsc1)N1CCC(Cc2ccc(CO)cc2)CC1` [MBX-8192]: the MIC was greater than 15.8 µg/mL and the “MIC (ug/mL) (+) Fluc” value is greater than 15.8 µg/mL.
`O=S(=O)(c1cccs1)N1CCC2(CC1)C[C@H](CCOc1ccncc1)CCO2` [MBX-8250]: the MIC was determined as 2.64 µg/mL and the “MIC (ug/mL) (+) Fluc” value worked out at 0.52 µg/mL.
For the molecule `O=S(=O)(c1ccc(F)cc1)C1CCN(Cc2ccc(CN3CCOCC3)cc2)CC1` [MBX-8325], the MIC is greater than 20 µg/mL and the “MIC (ug/mL) (+) Fluc” value was greater than 20 µg/mL.
With `O=S(=O)(c1ccsc1)N1CCC2(CC1)CC(CCOc1ccncc1)CCO2` (stereo not drawn) [MBX-7876], the MIC was greater than 12 µg/mL and the “MIC (ug/mL) (+) Fluc” value is 2.99 µg/mL.
In the case of `O=C(c1ccsc1)N1CCC(Cc2ccc(COc3cncnc3)cc2)CC1` [MBX-8033], the MIC turned out to be 39 µg/mL, the “potency / potentiation” value is reported as “complete loss of activity” and the “MIC (ug/mL) (+) Fluc” value was found to be 27.00 µg/mL.
On to `O=C(c1ccsc1)N1CCC(Cc2ccc(COc3ccncc3)cn2)CC1` [MBX-8619], for which the MIC was determined as 4.92 µg/mL and the “MIC (ug/mL) (+) Fluc” value is 1.23 µg/mL.
Take `O=C(c1ccsc1)N1CC(Cc2ccc(COc3ccncc3)cc2)C1` [MBX-8305]: the MIC is 9.1 µg/mL and the “MIC (ug/mL) (+) Fluc” value worked out at 4.50 µg/mL.
As for `O=C(c1cccc(O)c1)N1CCC(Cc2ccc(COc3ccncc3)cc2)CC1` [MBX-7801], the MIC was greater than 16 µg/mL and the “MIC (ug/mL) (+) Fluc” value is greater than 16 µg/mL.
Turning to `Cn1ccc(C(=O)N2CCC(Cc3ccc(COc4ccncc4)cc3)CC2)c1` [MBX-7773], the MIC turned out to be 7.79 µg/mL, the “potency / potentiation” value is “antagonistic potentiation effect with the fluconazole” and the “MIC (ug/mL) (+) Fluc” value was 15.60 µg/mL.
As for `O=C(c1ccsc1)N1CCN(Cc2ccc(-c3ccncc3)cc2)CC1` [MBX-8702], the MIC was 1.14 µg/mL and the “MIC (ug/mL) (+) Fluc” value was determined as 0.32 µg/mL.
As for `O=S(=O)(c1ccoc1)N1CCC2(CC1)CC(CCOc1ccncc1)CCO2` (stereo not drawn) [MBX-7875], the MIC was greater than 16 µg/mL and the “MIC (ug/mL) (+) Fluc” value worked out at 8.00 µg/mL.
Consider `Cc1ccc(S(=O)(=O)N2CCC3(CC2)CC(CCOc2ccncc2)CCO3)cn1` (stereo not drawn) [MBX-8143], for which the MIC is 10.8 µg/mL and the “MIC (ug/mL) (+) Fluc” value is 3.81 µg/mL.
Turning to `O=C(c1ccccc1)N1CCC(Cc2ccc(COc3ccncc3)cc2)CC1` [MBX-7704], the MIC was greater than 15 µg/mL and the “MIC (ug/mL) (+) Fluc” value is greater than 15 µg/mL.
Consider `O=S(=O)(c1cc(F)cc(F)c1)N1CCC(Cc2ccc(CN3CCOCC3)cc2)CC1` [MBX-8223], for which the MIC was determined as 12.6 µg/mL and the “MIC (ug/mL) (+) Fluc” value came to 3.50 µg/mL.
With `CC(C)(O)c1ccc(C(=O)N2CCC(Cc3ccc(COc4ccncc4)cc3)CC2)cc1` [MBX-8139], the MIC was greater than 22 µg/mL and the “MIC (ug/mL) (+) Fluc” value was greater than 22 µg/mL.
For `O=S(=O)(c1cccc(Cl)c1)N1CCC(Cc2ccc(CN3CCOCC3)cc2)CC1` [MBX-8187], the MIC is 4.45 µg/mL and the “MIC (ug/mL) (+) Fluc” value was 2.50 µg/mL.
For the molecule `N#Cc1ccc(C(=O)N2CCC(Cc3ccc(COc4ccncc4)cc3)CC2)cc1` [MBX-8088], the MIC is 6.5 µg/mL, the “potency / potentiation” value was “antagonistic effect” and the “MIC (ug/mL) (+) Fluc” value stood at 14.50 µg/mL.
On to `O=S(=O)(c1ccc(F)cc1)N1CCC(Oc2ccc(CN3CCOCC3)cc2)CC1` [MBX-8282], for which the MIC came out at 5.43 µg/mL and the “MIC (ug/mL) (+) Fluc” value came out at 1.36 µg/mL.
As for `O=C(c1ccsc1)N1CCC(Cc2ccc(C#Cc3ccncc3)cc2)CC1` [MBX-7963], the MIC is greater than 77 µg/mL and the “MIC (ug/mL) (+) Fluc” value was greater than 77 µg/mL.
In the case of `O=S(=O)(C1COC1)N1CCC2(CC1)CC(CCOc1ccncc1)CCO2` (stereo not drawn) [MBX-7956], the MIC is greater than 79 µg/mL, the “potency / potentiation” value is recorded as “complete loss of activity” and the “MIC (ug/mL) (+) Fluc” value is greater than 79 µg/mL.
Consider `O=C(c1ccccn1)N1CCC(Cc2ccc(COc3ccncc3)cc2)CC1` [MBX-7729], for which the MIC came to 15 µg/mL, the “potency / potentiation” value is reported as “did not result in appreciable increase in potency” and the “MIC (ug/mL) (+) Fluc” value is 15.00 µg/mL.
Consider `O=S(=O)(c1ccc(F)cc1)N1CCC(Cc2ccc(CN3CCOCC3)cc2)C1` (stereo not drawn) [MBX-8390], for which the MIC came to 2 µg/mL and the “MIC (ug/mL) (+) Fluc” value was 0.40 µg/mL.
The matching figures for `O=S(=O)(c1ccccc1F)N1CCC(Cc2ccc(CN3CCOCC3)cc2)CC1` [MBX-8252]: 5.4 µg/mL and 1.07 µg/mL.
`Cc1cnccc1OCc1ccc(CC2CCN(C(=O)c3ccsc3)CC2)cc1` [MBX-8140]: the MIC is greater than 20 µg/mL, the “potency / potentiation” value is on record as “complete loss of activity” and the “MIC (ug/mL) (+) Fluc” value was greater than 20 µg/mL.
Take `O=C(c1ccc(Cl)cc1)N1CCC(Cc2ccc(COc3ccncc3)cc2)CC1` [MBX-7705]: the MIC was found to be 1.49 µg/mL, the “potency / potentiation” value is given as “low potentiation effect” and the “MIC (ug/mL) (+) Fluc” value turned out to be 1.05 µg/mL.
Regarding `O=C(O)c1ccc(C(=O)N2CCC(Cc3ccc(COc4ccncc4)cc3)CC2)cc1` [MBX-8138], the MIC was greater than 21 µg/mL and the “MIC (ug/mL) (+) Fluc” value is greater than 21 µg/mL.
As to `O=C(c1ccsc1)N1CCC(Cc2ccc(COc3cc[n+]([O-])cc3)cc2)CC1` [MBX-8191], the MIC was greater than 20 µg/mL, the “potency / potentiation” value is listed as “complete loss of activity” and the “MIC (ug/mL) (+) Fluc” value was greater than 20 µg/mL.
As to `O=S(=O)(c1cccc(F)c1)N1CCC(Cc2ccc(CN3CC4(COC4)C3)cc2)CC1` [MBX-8244], the MIC was greater than 22 µg/mL and the “MIC (ug/mL) (+) Fluc” value was greater than 22 µg/mL.
Turning to `O=C(c1ccsc1)N1CCC(Cc2ccc(OCc3ccncc3)cc2)CC1` [MBX-8024], the MIC came out at 19.6 µg/mL, the “potency / potentiation” value is reported as “not optimal for potentiation of fluconazole” and the “MIC (ug/mL) (+) Fluc” value was determined as 19.60 µg/mL.
For `COc1cc(OCc2ccc(CC3CCN(C(=O)c4ccsc4)CC3)cc2)ccn1` [MBX-8142], the MIC was greater than 21 µg/mL, the “potency / potentiation” value was “complete loss of activity” and the “MIC (ug/mL) (+) Fluc” value is greater than 21 µg/mL.
As to `CN(C)Cc1ccc(CC2CCN(S(=O)(=O)c3ccc(F)cc3)CC2)cc1` [MBX-8439], the MIC was 9.76 µg/mL and the “MIC (ug/mL) (+) Fluc” value is 0.78 µg/mL.
Regarding `NCc1ccc(OCc2ccc(CC3CCN(C(=O)c4ccsc4)CC3)cc2)cc1` [MBX-8220], the MIC is greater than 21 µg/mL and the “MIC (ug/mL) (+) Fluc” value is greater than 21 µg/mL.
Consider `O=S(=O)(c1ccc(C(F)(F)F)nc1)N1CCC(Cc2ccc(COc3ccncc3)cc2)C1` (stereo not drawn) [MBX-8393], for which the MIC is greater than 47 µg/mL and the “MIC (ug/mL) (+) Fluc” value is greater than 47 µg/mL.
Take `O=C(c1ccsc1)N1CCC(Cc2ccc(-c3ccncc3)cc2)CC1` [MBX-7964]: the MIC was 2.27 µg/mL, the “potency / potentiation” value is reported as “maintained potency” and the “MIC (ug/mL) (+) Fluc” value was determined as 1.13 µg/mL.
`O=S(=O)(C1CCC1)N1CCC2(CC1)CC(CCOc1ccncc1)CCO2` (stereo not drawn) [MBX-7915]: the MIC was found to be 39.5 µg/mL, the “potency / potentiation” value is “complete loss of activity” and the “MIC (ug/mL) (+) Fluc” value worked out at 49.70 µg/mL.
For the molecule `O=C(c1ccc(C(F)(F)F)nc1)N1CCC(Cc2ccc(CN3CCOCC3)cc2)C1` (stereo not drawn) [MBX-8392], the MIC is greater than 43 µg/mL and the “MIC (ug/mL) (+) Fluc” value is greater than 43 µg/mL.
